Patent publication US4859658A, “Compound compositions with improved analgesic antipyretic and anti-inflammatory activity” (Ricerfarma S.R.L., priority 1987, dated 1989)
Like-named read-outs stand apart in the source and are kept apart here.

Experiments:
[1] = test system: yeast-induced fever; test: Anti-pyretic effect (yeast-induced) test in rats; format: in vivo, rat; conditions: oral gavage
Protocol: Anti-pyretic effect of Combination of Thiocetamol with Aspirin
(yeast-induced) test in rats
I. TEST MATERIALS: Thioacetamol, Aspirin
1. Fever in test animals was induced by subcutaneous
injection of yeast (10% in saline). Basal
rectal temperature (BRT) was determined in all
test animals with the aid of a YSI thermistor probe
2. Four hours after the yeast injection a test drug
suspended in 1% methyl cellulose (MC), was
administered by oral gavage to groups of
male rats (8 rats/group). Controls were
3. Measurements of rectal temperatures (ERT) in
response to the various treatments, were
carried out at 1, 3 and 5 hours after
the test drug administration.
Evaluation of anti-pyretic activity was based on the
temperature difference (Δt) between BRT and ERT at
each of the three respective test periods
for each treatment group.
Data was calculated by ranking Δt values obtained in
test drug-treated and control rats and expressed

[2] = test system: carrageenin-induced oedema; test: Anti-inflammatory effect, rat paw oedema test; format: in vivo; conditions: oral gavage
Protocol: I. TEST MATERIALS: Thioacetamol, Indomethacin (Indomet)
The test drugs, suspended in 1% methyl cellulose (MC),
were administered by oral gavage to groups of male rats
(6 rats/group). Controls were given MC only.
2. Three hours following the test drug administration,
0.1 ml carrageenin (1% in saline) was injected
sub-plantar into the right hind paw. Identically
saline-injected left hind paw served
3. Readings were taken on each paw 3 hours following
injection of the test drug. The volume of both
hind paws was measured with an Hg-displacement
Volumeter (Huge, Basile, Italy).
Evaluation of anti-inflammatory activity was based on
the difference in volume (ΔV) between
the right (carrageenin-induced oedema) and left
(saline-control) hind paws.
Data was calculated by ranking ΔV values obtained
in drug-treated and control rats and expressed
percent increase over control for normal

[3] = test system: hepatic parenchyma; conditions: compared with parent paracetamol; cited from earlier work
[4] = cited from earlier work; for LD50: in vivo
[5] = in vivo, 500 mg/kg
From the text: It must be also pointed out that the combination of very low doses of each component is not toxic.

[6] = single oral dose, cited from earlier work
[7] = cited from earlier work; for ED50: each compound alone, as reported by Maruyama Y. et al

Which “Δt at 1 hour” value ([1]; 75 mg/kg) does the source give for CC(=O)Nc1ccc(OC(=O)c2cccs2)cc1 [Thiocetamol, p-acetamidophenyl thiophene-2-carboxylate] here?
Its value is 86%.

And the “Δt at 3 hour” value ([1]; 75 mg/kg)?
Its value is 91%.

And the “Δt at 5 hour” value ([1]; 75 mg/kg)?
The value was 91%.

What about the “Δt at 1 hour” value ([1]; 150 mg/kg) of the same molecule?
The value was 47%.

And the “Δt at 3 hour” value ([1]; 150 mg/kg)?
Its value is 96%.

And the “Δt at 5 hour” value ([1]; 150 mg/kg)?
Its value is 84%.

What about the “Δt at 1 hour” value ([1]; 300 mg/kg) of the same molecule?
Its value is 26%.

What about the “Δt at 3 hour” value ([1]; 300 mg/kg) of the same molecule?
Its value is 40%.

And the “Δt at 5 hour” value ([1]; 300 mg/kg)?
Its value is 61%.

And the “ΔV (percent over control)” value ([2]; 150 mg/kg)?
The value was 90%.

What about the “ΔV (percent over control)” value ([2]; 300 mg/kg) of the same molecule?
The value was 70%.

And the “ΔV (percent over control)” value ([2]; 600 mg/kg)?
Its value is 62%.

And the “toxicity towards the hepatic parenchyma” value [3]?
Its value is “remarkable lower toxicity towards the hepatic parenchyma”.

What about the “acute median lethal dose (LD50)” value ([4]; compared with parent paracetamol, in words) of the same molecule?
The value was “far lower than that of the parent paracetamol”.

What about the LD50 [4] of the same molecule?
The LD50 was “around 2000 mg/kg”.

And the toxic effects [5]?
Its toxic effects is “without any toxic effects”.

Which results are given for CC(=O)Oc1ccccc1C(=O)O [Aspirin]?
Δt at 1 hour ([1]; 50 mg/kg): 86%; Δt at 3 hour ([1]; 50 mg/kg): 83%; Δt at 5 hour ([1]; 50 mg/kg): 67%; Δt at 1 hour ([1]; 100 mg/kg): 67%; Δt at 3 hour ([1]; 100 mg/kg): 55%; Δt at 5 hour ([1]; 100 mg/kg): 56%; Δt at 1 hour ([1]; 200 mg/kg): 49%; Δt at 3 hour ([1]; 200 mg/kg): 29%; Δt at 5 hour ([1]; 200 mg/kg): 19%; Gastric lesions ([6]; 100 mg/kg): 0%; Intestinal lesions ([6]; 100 mg/kg): 0%; Gastric lesions ([6]; 300 mg/kg): 60%; Intestinal lesions ([6]; 300 mg/kg): 10%; Gastric lesions ([6]; 600 mg/kg): 100%; Intestinal lesions ([6]; 600 mg/kg): 10%; LD50 [4]: 1000 mg/kg; ED50 [7]: 500 mg/kg

Which ED50 [7] does the source give for CC(C)Cc1ccc(C(C)C(=O)O)cc1 (stereo not drawn) [Ibuprofen] here?
Its ED50 is 60 mg/kg.

For COc1ccc2c(c1)c(CC(=O)O)c(C)n2C(=O)c1ccc(Cl)cc1 [Indomethacin], which “ΔV (percent over control)” value ([2]; 1 mg/kg) is on record?
The value was 85%.

What about the “ΔV (percent over control)” value ([2]; 2 mg/kg) of the same molecule?
Its value is 63%.

And the “ΔV (percent over control)” value ([2]; 4 mg/kg)?
Its value is 58%.

And the Gastric lesions ([6]; 3 mg/kg)?
Its Gastric lesions is 0%.

What about the Intestinal lesions ([6]; 3 mg/kg) of the same molecule?
Its Intestinal lesions is 0%.

And the Gastric lesions ([6]; 10 mg/kg)?
Its Gastric lesions is 100%.

What about the Intestinal lesions ([6]; 10 mg/kg) of the same molecule?
The Intestinal lesions was 30%.

What about the LD50 [4] of the same molecule?
The LD50 was 15.2 mg/kg.

And the “anti-inflammatory dose (ED50)” value ([7]; as reported)?
Its value is 3.5 mg/kg.

And the ED50 [7]?
The ED50 was 3.6 mg/kg.

Which ED50 [7] does the source give for O=C(O)Cc1ccccc1Nc1c(Cl)cccc1Cl [Diclofenac] here?
The ED50 was 5 mg/kg.
